Reference: US11059815B2, “Synthesis of small molecule histone deacetylase 6 degraders, compounds formed thereby, and pharmaceutical compositions containing them” (Wisconsin Alumni Research Foundation, priority 2018, dated 2021)

Target: T1, HDAC6 (Homo sapiens, UniProt Q9UBN7)
T1 construct: endogenous in cells; host or cells: MM1S (ATCC CRL-2974)
T1 sequence (Q9UBN7 1-1215): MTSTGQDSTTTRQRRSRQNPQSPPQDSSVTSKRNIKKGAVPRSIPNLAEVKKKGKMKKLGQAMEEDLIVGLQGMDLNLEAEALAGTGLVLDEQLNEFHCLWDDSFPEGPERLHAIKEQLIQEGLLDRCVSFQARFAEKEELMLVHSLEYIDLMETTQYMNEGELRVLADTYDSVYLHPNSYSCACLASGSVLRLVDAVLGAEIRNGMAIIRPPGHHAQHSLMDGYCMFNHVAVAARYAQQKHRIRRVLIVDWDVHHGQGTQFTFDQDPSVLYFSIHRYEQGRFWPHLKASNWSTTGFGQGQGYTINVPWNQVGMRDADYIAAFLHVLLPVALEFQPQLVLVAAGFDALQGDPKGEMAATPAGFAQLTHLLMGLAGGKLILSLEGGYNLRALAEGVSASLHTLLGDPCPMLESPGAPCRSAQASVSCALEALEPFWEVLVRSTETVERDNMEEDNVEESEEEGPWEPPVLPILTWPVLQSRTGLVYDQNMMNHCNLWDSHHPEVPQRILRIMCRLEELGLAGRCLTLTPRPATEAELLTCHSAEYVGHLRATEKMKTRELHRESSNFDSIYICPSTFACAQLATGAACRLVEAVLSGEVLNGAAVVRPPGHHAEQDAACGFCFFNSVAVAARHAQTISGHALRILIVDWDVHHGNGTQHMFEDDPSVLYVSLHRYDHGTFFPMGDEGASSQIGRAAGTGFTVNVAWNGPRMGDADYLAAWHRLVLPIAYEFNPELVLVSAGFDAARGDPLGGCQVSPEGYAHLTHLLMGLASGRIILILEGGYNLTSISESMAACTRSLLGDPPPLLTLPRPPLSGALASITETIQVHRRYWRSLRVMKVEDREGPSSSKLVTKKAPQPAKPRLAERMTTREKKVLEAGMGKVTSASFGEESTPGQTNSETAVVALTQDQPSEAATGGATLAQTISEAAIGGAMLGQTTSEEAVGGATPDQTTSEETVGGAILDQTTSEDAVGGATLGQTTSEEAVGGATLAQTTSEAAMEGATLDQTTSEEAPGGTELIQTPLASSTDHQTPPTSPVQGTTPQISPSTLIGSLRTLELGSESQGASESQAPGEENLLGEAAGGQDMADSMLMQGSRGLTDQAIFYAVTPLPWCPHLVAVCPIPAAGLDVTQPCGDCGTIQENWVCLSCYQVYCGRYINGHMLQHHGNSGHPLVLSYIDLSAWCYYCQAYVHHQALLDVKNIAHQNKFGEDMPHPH
Test: In-cell ELISA of HDAC6 protein level in MM1S cells
Type: cell-based
Conditions: 6 h; for DC50 / Dmax: 0.1 nM to 1 μM, nonlinear fit, ± SD; for Dmax / inhibition at 0.01 µM / inhibition at 0.1 µM: MM1.S; for Dmax: read-out: Dmax (Vehicle %); for inhibition at 0.01 µM: n=3, read-out: Degradation (%) 10 nM; for inhibition at 0.1 µM: n=3, read-out: Degradation (%) 100 nM
Protocol: FIG. 9 is a histogram depicting the results of screening of compounds for HDAC6 degradation activity by in-cell ELISA. MM1S cells were treated with compounds at 100 nM (blue bars) or 10 nM (red bars) for 6 h. Data was normalized to vehicle (DMSO)-treated group and the bar graph represents as mean of relative HDAC6 protein level (n=3) with ±SD as error bar. Statistical significance was analyzed by one-way ANOVA. Not significant (ns) P>0.05, *P≤0.05, **P≤0.01, ***P≤0.001, ****P≤0.0001.
FIG. 11 is a graph depicting dose response of selected degrader candidates. MM1S cells were treated for 6 h and analyzed by in-cell ELISA. Data was normalized to vehicle (DMSO)-treated group and dot plot represented as mean relative expression (n=3) with ±SD as error bar. Nonlinear fitting of inhibitor concentration vs. response (three parameters) was generated by GraphPad Prism with R2 from 0.97 to 0.99.
FIG. 15 is a histogram depicting relative HDAC6 expression as a function of linker length for compounds 3a through 3k as described in the Examples section, Part 2. Human MM1S cells were treated with 100 nM degraders for 6 hours and analyzed by in-cell ELISA assay.
FIG. 17 is a dose-response curve for degraders 3j (n=1), 3k (n=12) and 2, at concentrations from 1 nM to 300 nM for 4 h in MM1S. See the Examples, Part 2.
To screen the new series of degraders, an in-cell ELISA assay was developed and validated. The compounds were treated at 100 nM and 10 nM in MM1S cells for 6 h. Resulting cells were then fixed and analyzed by in-cell ELISA. […] Degraders including 1 at 100 nM degraded 73.5% to 85.0% of HDAC6 with minor difference. At 10 nM concentration of compounds, obvious structure-activity-relationship (SAR) was observed. […] For example, 12d, 12h, 12i, 12o and 12p all achieved about 70% degradation. Among the C4-linked series, 12d with medium length linker (5+1) achieved most degradation in sub-series 12a-e (m=1). […] Among C5-linked series, the potency of sub-series 12l-p (m=1) increased with the linker length. […] It appeared that both the distance and linking positions contributed to the degradation efficiency. The rigid triazole ring in the middle of the linker likely modulated the plasticity of degrader-bridged ternary complex.
The amount of cellular HDAC6 was measured in response to concentrations of compounds from 0.1 nM to 1 μM. […] The new degraders had single-digit nanomolar DC50, which was about 3 to 5 fold of improvement from 9.12 nM of degrader 1. […] As discussed above, most PROTACs were designed to avoid degrading other proteins except the targeted POIs. However, in these studies, it was hypothesized that HDAC6 degraders with IKZF degradation will have enhanced anti-proliferation effect MM1S cells.
MM1S cells were harvested and plated with 5×10^5 cells in 100 μL media per well 96-wells plate. After overnight seeding, 25 μL media containing 5× dosing concentration of the compounds or vehicle was added to each well. After 6-hour treatment at 37° C. in a humidified 5% CO2 atmosphere, cells were fixed by adding 125 μL 8% formaldehyde in TBS buffer (137 mM NaCl, 25 mM Tris, 2.7 mM potassium chloride, pH 7.6) and incubated at room temperature (RT) for 15 minutes. Removal of fixing solution was followed by once rinse and twice washes with TBS-T washing buffer (137 mM NaCl, 20 mM Tris, 0.1% Tween, pH 7.6). Cells were then permeabilized by adding 100 μL 0.1% Triton-X in TBS and incubated at RT for 15 minutes. Removal of permeabilizing solution was followed by once rinse and once wash with TBS-T. Cellular endogenous peroxidases were quenched by adding 100 μL 1% H2O2 in TBS and incubation at RT for 20 minutes. Removal of quenching solution was followed by once rinse and once wash with TBS-T. Non-specific binding sites were blocked by adding […] 5% BSA in TBS-T (with 0.02% NaN3) and incubation at 4° C. overnight. […]

[1] = 10 nM, 100% minus mean (± SD) relative HDAC6 expression
[2] = 100 nM, 100% minus mean (± SD) relative HDAC6 expression

Nc1cccc2c1C(=O)N(C1CCC(=O)NC1=O)C2=O (stereo not drawn) [Pomalidomide, reference compound]
effect on expression of HDAC6 compared with vehicle (10 nM): didn't affect | effect on expression of HDAC6 compared with vehicle (100 nM): very minimal effects

CCCCN(Cc1ccc(C(=O)NO)cc1)C(=O)Nc1ccc(OCCCCCn2cc(CNc3cccc4c3C(=O)N(C3CCC(=O)NC3=O)C4=O)nn2)cc1 (stereo not drawn) [Compound 12d, 4-((1-butyl-3-(4-((5-(4-(((2-(2,6-dioxopiperidin-3-yl)-1,3-dioxoisoindolin-4-yl)amino)methyl)-1H-1,2,3-triazol-1-yl)pentyl)oxy)phenyl)ureido)methyl)-N-hydroxybenzamide]
DC50: 1.64 nM | Dmax: 86.3 ± 1.7% | inhibition at 0.01 µM [1]: ~70% | inhibition at 0.1 µM [2]: 82.7 ± 1.7%

CCCCN(Cc1ccc(C(=O)NO)cc1)C(=O)Nc1ccccc1 [Next-A, 4-[[butyl[(phenylamino)carbonyl]amino]methyl]-N-hydroxy-benzamide, reference compound]
effect on expression of HDAC6 compared with vehicle (10 nM): didn't affect | effect on expression of HDAC6 compared with vehicle (100 nM): very minimal effects

CCCCN(Cc1ccc(C(=O)NO)cc1)C(=O)Nc1ccc(OCCCn2cc(CNc3ccc4c(c3)C(=O)N(C3CCC(=O)NC3=O)C4=O)nn2)cc1 (stereo not drawn) [Compound 12m, 4-((1-butyl-3-(4-(3-(4-(((2-(2,6-dioxopiperidin-3-yl)-1,3-dioxoisoindolin-5-yl)amino)methyl)-1H-1,2,3-triazol-1-yl)propoxy)phenyl)ureido)methyl)-N-hydroxybenzamide]
inhibition at 0.01 µM [1]: 60.3 ± 1.3% | inhibition at 0.1 µM [2]: 81.2 ± 0.6%

O=C(CCCCCCC(=O)N/N=C/c1ccc(OCCOCCOCCn2cc(CNc3cccc4c3C(=O)N(C3CCC(=O)NC3=O)C4=O)nn2)cc1)NO (stereo not drawn) [Compound 1]
DC50: 9.12 nM | Degradation (%) 10 nM (10 nM, 100% minus mean (± SD) relative HDAC6 expression, n=3): 47.9 ± 0.9% | Dmax: 84.1 ± 2.41% | inhibition at 0.01 µM [1]: 47.9% | inhibition at 0.1 µM [2]: 73.5 ± 0.3%
